Here are results for three compounds from PMC10135378, “Synthesis of Novel N-Heterocyclic Carbene-Ruthenium (II) Complexes, “Precious” Tools with Antibacterial, Anticancer and Antioxidant Properties” (Antibiotics, 2023).

Structures are written as SMILES.

For one assay, the system named is MCF-7 cells. The assay can be described thus: MTT assay, anticancer activity on MCF-7 cells. It counts as cell-based, human. The following applies: 72 h exposure, 0.1-100 µM. As for the experimental part: (§1) The anticancer activity of all the synthesized Ru-NHC complexes (RANHC I-VI) was studied in two human breast cancer cell lines, namely the estrogen receptor positive (ER+) MCF-7 cells and the triple negative MDA-MB-231 cells (ER-, PR-, and HER-2/Neu not overexpressed), and neuroblastoma cells, i.e., SH-SY5Y. First, the cells were exposed for 72 h at different concentrations of the studied complexes (from 0.1 to 100 µM) and then their viability was checked by MTT assay.
(§2) The adopted cells (breast cancer MCF-7 and MDA-MB-231 and human mammary epithelial MCF-10A cells) were purchased from American Type Culture Collection (ATCC, Manassas, VA, USA) and cultured as indicated. The mouse embryonic fibroblast BALB/3T3 and neuroblastoma SH-SY5Y were also obtained from American Type Culture Collection (ATCC, Manassas, VA, USA) and cultured in DMEM high glucose supplemented with 100 U mL^−1 penicillin/streptomycin and 10% bovine calf serum (BCS) or 10% fetal bovine serum (FBS), respectively.
(§3) MTT assay (Sigma Aldrich (St. Louis, MO, USA)) was used for the in vitro anticancer activity evaluation, as previously reported. The Ru-NHC complexes were employed at different concentrations (0.1–1–10–25–50–100 μM) for 72 h. The IC50 values were calculated from the percent (%) of control using GraphPad Prism 9 (GraphPad Software, La Jolla, CA, USA).
For orientation: Tetrazolium assays rely on reduction of a dye to a coloured formazan, in cell work by metabolically active cells.

The subject of the next assay is SH-SY5Y cells. Put plainly: MTT assay, anticancer activity on SH-SY5Y neuroblastoma cells. It counts as cell-based. The note with it: 72 h exposure, 0.1-100 µM. The protocol: as §1, §2, §3
The test system of another assay is MDA-MB-231 cells. The assay can be described thus: MTT assay, anticancer activity on MDA-MB-231 cells. It counts as cell-based, human. The note with it: MTT, 72 h exposure, 0.1-100 µM. The protocol:
as §1, §2, §3

The next assay deals with BALB/3T3 cells. Put plainly: MTT assay, non-tumoral BALB/3T3 fibroblasts. It counts as cell-based. The following applies: 72 h exposure, non-tumoral mouse embryonic fibroblasts.
Text: (§4) Additionally, we investigated the selectivity of all the synthesized Ru-NHC complexes on the cancer cells by studying their capability to interfere with the growth of two non-tumoral cells, namely the MCF-10A and BALB/3T3 cells.
as §2, §3

For another assay, the system named is MCF-10A cells. The assay can be described thus: MTT assay, non-tumoral MCF-10A cells. The following applies: 72 h exposure. Type of assay: cell-based, human.
Text: as §4, §2, §3

Assay [1] in a line: ABTS radical scavenging assay. The note with it: 5 min, room temperature, 730 nm. The text has this: To further analyze the Ru-NHC complexes antiradical potential, we examined their capability to interfere with the ABTS radical cation, a well-known protonated radical with a characteristic maximal absorbance at 730 nm, which diminishes with the scavenging of the radical proton. The assay measures radical scavenging by the electron donation. The outcomes in terms of ABTS% scavenging activity are reported in Figure 7 and IC50 values of Ru-NHC complexes, together with the standard Trolox, on ABTS radical are summarized in Table 3 and Table S3.
The radical scavenging properties of the Ru-NHC complexes on a 2,2′-azino-bis(3-ethylbenzothiazoline-6-sulfonate) radical cation (ABTS^•+) were calculated as described by Fazio et al., with few adjustments. Briefly, 2 mM ABTS and 70 mM potassium persulfate water solutions were mixed and incubated to obtain ABTS^•+ radical stock solution (16 h, room temperature, in the dark). ABTS solution was diluted in ethanol to obtain an absorbance of 0.70 ± 0.02 at 730 nm, prior to use. Then, 2 μL of each Ru-NHC complex at different concentrations, properly dissolved in DMSO, were mixed with 198 μL of the ABTS^•+ solution in a 48-well plate obtaining the following concentrations: 0.1, 1, 10, 50, and 100 µg/mL. The solutions were vigorously shaken and incubated (5 min, room temperature, in the dark). The ABTS scavenging activity was determined at 730 nm, using a microplate reader. The control was prepared mixing 2 μL of DMSO with 198 μL of the ABTS^•+ solution. The ABTS radical scavenging was expressed as inhibition percentages (%IABTS) of each complex compared to the control, according to the formula: %IABTS=A0−A/A0×100 where A0 is the absorbance at 730 nm of the control reaction and A is the absorbance at 730 nm in the presence of samples.
IC50 values for the Ru complexes were calculated from the %IABTS using GraphPad Prism 9 software (GraphPad Inc., San Diego, CA, USA). Trolox was employed as the positive control.

The nature of assay [2]: DPPH radical scavenging assay. The following applies: 30 min, room temperature, 517 nm. The protocol: Generally, the DPPH radical is able to accept hydrogen radicals or an electron, turning into a stable molecule. The interaction with Ru-NHC complexes induces the reduction of DPPH radical intensity measured at 517 nm, due to the conversion of the purple DPPH radical into its corresponding yellow hydrazine form.
The radical scavenging properties of Ru-NHC complexes on the 1,1-diphenyl-2-picryl-hydrazil (DPPH) radical were evaluated as described by Fazio et al., with minor corrections. Then, 20 μL of each Ru complex, properly dissolved in DMSO, were mixed with methanol DPPH 0.1 mM (180 μL) in a 48-well plate obtaining […] different concentrations (10, 50, 100, 200 and 300 µg/mL). Next, 20 μL of DMSO in 180 μL of DPPH methanol solution was diluted as the control. The mixture was vigorously shaken and incubated (room temperature, 30 min, in the dark). The scavenging activity was measured at 517 nm, using a microplate reader. DPPH radical scavenging was expressed as inhibition percentages (%IDPPH) for the Ru complexes compared to the initial concentration of DPPH (control) according to the formula: %IDPPH=A0−A/A0×100 where A0 is the absorbance at 517 nm of the control reaction and A is the absorbance at 517 nm in the presence of samples.
The obtained IDPPH percentages allowed the IC50 values determination, using GraphPad Prism 9 software (GraphPad Inc., San Diego, CA, USA). Trolox was employed as a positive control.

Assay [3] relates to Escherichia coli (ATCC 25922). Put plainly: MIC/MBC broth dilution, E. coli. It counts as cell-based. The note with it: control for strain sensitivity. The protocol:
(§5) One Gram-negative (Escherichia coli (ATCC® 25922TM)) and two Gram-positive bacterial strains (Enterococcus faecalis (ATCC® 19433TM) and Staphylococcus aureus (ATCC® 23235TM)] were used for MIC and MBC values determination, according to CLSI guidelines. MIC represents the lowest concentration of compound inhibiting the visible microbial growth and expressed as μg/mL; MBC is the lowest concentration able to kill the bacteria. Both determinations were performed by the broth dilution method. Bacteria were grown overnight in LB medium (2%), then diluted to a density of […] colony forming units (CFUs) per mL, plated in sterile 96-well microplates, obtaining about 10^5 cells/ well. Increasing concentrations of the Ru-NHC complexes (1, 10, 25, 50, 70, 100 µg/mL) were used. After incubation at 37 °C for 18 h (overnight), bacterial growth was checked at a wavelength of 600 nm using a Multiskan spectrophotometer (model Multiskan Ex Microplate; Thermo Scientific, Nyon, Switzerland) and MIC or MBC values were determined, comparing cell density with a positive control (bacterial cells grown in LB medium were added with only the vehicle, DMSO). Each experiment was carried out five times, in triplicate. Ampicillin (Sigma Aldrich A9393) was used as the control for strain sensitivity.

Assay [4] has as its system Enterococcus faecalis (ATCC 19433). Put plainly: MIC/MBC broth dilution, E. faecalis. It counts as cell-based. The note with it: control for strain sensitivity. The protocol:
as §5
For orientation: In broth dilution the organism is exposed to a series of concentrations in liquid medium.

Assay [5] concerns Staphylococcus aureus (ATCC 23235). The assay can be described thus: MIC/MBC broth dilution, S. aureus. The following applies: control for strain sensitivity. It counts as cell-based. As for the experimental part: as §5

Usually IC50 stands for the concentration at which inhibition is half-maximal. A low value points to greater potency in that assay. Turning to `N.N.[Cl][Pt][Cl]` [Cisplatin, reference compound], the IC50 in the assay with MCF-7 cells is 26.2 ± 1.1 µM; in the assay on SH-SY5Y cells, 18.8 ± 0.9 µM; with MDA-MB-231 cells, 32.1 ± 1 µM; with BALB/3T3 cells, 21.6 ± 1.2 µM; with MCF-10A cells, 80.24 ± 0.8 µM.

In the case of `Cc1c(C)c2c(c(C)c1O)CCC(C)(C(=O)O)O2` (stereo not shown) [Trolox, reference compound], the half-maximal inhibitory concentration (IC50) in [1] was determined as 92.3 ± 0.9 µM; in assay [2] it was 99.91 ± 0.9 µM.

On to `CC1(C)S[C@@H]2[C@H](NC(=O)[C@H](N)c3ccccc3)C(=O)N2[C@H]1C(=O)O` [ampicillin, Ampicillin, reference compound], for which, in assay [3], the “strain sensitivity to ampicillin, E. coli” value is on record as “ampicillin-sensible”. In addition, the “strain sensitivity to ampicillin, E. faecalis” value in assay [4] is reported as “ampicillin-sensible”. Moreover, the “strain sensitivity to ampicillin, S. aureus” value in assay [5] is “ampicillin-sensible”.
